Reference: patent publication US20060223879A1, “Non-steroidal farnesoid x receptor modulators” (priority 2002, published 2006)
Entries after “also recorded” stand apart in the source; their conditions may differ. Like-named read-outs stand apart in the source and are kept apart here.

Target: T1, FXR (Homo sapiens, UniProt Q96RI1)
T1 construct: using a full length FXR on a natural response element; expressed in transfected cells
T1 sequence (Q96RI1 1-486): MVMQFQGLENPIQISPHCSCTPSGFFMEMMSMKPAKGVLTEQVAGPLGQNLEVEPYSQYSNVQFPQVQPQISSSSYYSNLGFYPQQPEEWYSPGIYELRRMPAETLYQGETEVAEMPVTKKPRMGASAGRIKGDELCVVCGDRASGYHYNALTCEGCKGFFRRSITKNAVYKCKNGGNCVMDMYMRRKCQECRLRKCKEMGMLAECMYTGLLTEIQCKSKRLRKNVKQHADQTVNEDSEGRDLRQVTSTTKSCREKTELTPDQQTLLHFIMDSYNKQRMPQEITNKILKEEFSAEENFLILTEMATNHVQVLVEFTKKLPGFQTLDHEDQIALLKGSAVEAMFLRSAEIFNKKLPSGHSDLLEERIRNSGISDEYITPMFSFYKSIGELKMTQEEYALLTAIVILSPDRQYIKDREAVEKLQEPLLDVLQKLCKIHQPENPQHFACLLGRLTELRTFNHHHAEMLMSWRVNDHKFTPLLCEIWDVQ
Assay: cell-based transcription assay, FXR responsive promoter linked to a luciferase reporter
Design: RE: scale not given here
Conditions: for EC50: FXR activation, read-out: EC50; for EC50 / FXR activation (in words): cell-based reporter assay; for RE: RE not defined in the source
Description: In addition to ensuring that only cell permeable compounds were selected for further optimization, this approach allows for the detection of FXR activation in a natural system (i.e., correct folding of the protein and in the presence of a complete compliment of co-activators and co-repressors).
The feasibility of creating high throughput screens (XIS) for ORs was explored using FXR as a candidate orphan receptor (OR) with a known activator, chenodeoxycholic acid (CDCA) as a ligand. The screen is based on the co-transfection of a full-length receptor with the reporter vector containing a natural hormone response element under a minimal eukaryotic promoter. […] Using this 384-well format, the high throughput screening (HTS) approach to FXR as a candidate OR was employed. […] A central question in the feasibility studies is whether this library is suitable for screening for nuclear receptor ligands. Samples of this library were first reformatted into a 384-well format and then subjected to the FXR cell-based assays described above and assessed for FXR-mediated transcriptional activity. Cells were exposed to approximately 10 μM of sample for 18 hrs prior to washing and luciferase analysis.
EC50 values were determined with Prism 3.0 software via the activity of the subject compound in the previously described cell based assay.

Structure (SMILES) | EC50 (Tables 1-15) | RE (Tables 1-15) | FXR activation (in words) | EC50
COC(=O)C=Cc1cccc(N(Cc2ccc(C=CCOc3ccccc3)cc2)C(=O)C2CCCCC2)c1 [Compound 158] | > 1000 nM | 0.64 | only micromolar activity | –
COC(=O)C=Cc1cccc(N(Cc2ccc(CCC(=O)OC(C)(C)C)cc2)C(=O)C2CCCCC2)c1 [Compound 159] | 240 nM | 1.56 | two-fold decrease in potency from the parent compound 105 | –
COC(=O)/C=C/c1cccc(N(Cc2ccc(/C=C/c3ccc(C)cc3)cc2)C(=O)C2CCCCC2)c1 [Compound 174] | 342 nM | 0.83 | among the least active | –
COC(=O)/C=C/c1cccc(N(Cc2ccc(/C=C/c3ccc(C)cc3)cc2)C(=O)C(C)C)c1 [Compound 175] | – | 0.37 | – | –
COC(=O)/C=C/c1cccc(N(Cc2ccc(/C=C/c3ccc(C)cc3)cc2)C(=O)NC(C)C)c1 [Compound 176] | – | 0.10 | – | –
COC(=O)/C=C/c1cccc(N(Cc2ccc(/C=C/c3c(Cl)cccc3Cl)cc2)C(=O)C2CCCCC2)c1 [Compound 177] | 150 nM | 0.12 | excellent activity | –
COC(=O)/C=C/c1cccc(N(Cc2ccc(/C=C/c3c(Cl)cccc3Cl)cc2)C(=O)C(C)C)c1 [Compound 178] | 195 nM | 0.14 | – | –
COC(=O)/C=C/c1cccc(N(Cc2ccc(/C=C/c3c(Cl)cccc3Cl)cc2)C(=O)NC(C)C)c1 [Compound 179] | – | 0.15 | – | –
COC(=O)/C=C/c1cccc(N(Cc2ccc(/C=C/c3cccc(Cl)c3)cc2)C(=O)C(C)C)c1 [Compound 181] | 264 nM | 1.09 | excellent activity | –
COC(=O)/C=C/c1cccc(N(Cc2ccc(/C=C/c3cccc(Cl)c3)cc2)C(=O)NC(C)C)c1 [Compound 182] | 339 nM | 0.58 | – | –
COC(=O)/C=C/c1cccc(N(Cc2ccc(/C=C/c3cc(C(F)(F)F)cc(C(F)(F)F)c3)cc2)C(=O)C(C)C)c1 [Compound 184] | 1950 nM | 0.13 | – | –
COC(=O)/C=C/c1cccc(N(Cc2ccc(/C=C/c3cc(C(F)(F)F)cc(C(F)(F)F)c3)cc2)C(=O)NC(C)C)c1 [Compound 185] | 1830 nM | 0.13 | – | –
COC(=O)/C=C/c1cccc(N(Cc2ccc(/C=C/c3cccc(C(F)(F)F)c3)cc2)C(=O)C(C)C)c1 [Compound 187] | 267 nM | 0.70 | – | –
COC(=O)C=Cc1cccc(N(Cc2ccc(C=Cc3c(F)cccc3F)cc2)C(=O)C2CCCCC2)c1 [Compound 189] | 174 nM | 0.94 | excellent activity | –
COC(=O)/C=C/c1cccc(N(Cc2ccc(/C=C/c3c(F)cccc3F)cc2)C(=O)NC(C)C)c1 [Compound 191] | 4020 nM | 0.21 | – | –
COC(=O)C=Cc1cccc(N(Cc2ccc(C=Cc3ccccc3F)cc2)C(=O)C2CCCCC2)c1 [Compound 192] | 64 nM | 1.41 | excellent activity; also recorded: among the most active | –
COC(=O)/C=C/c1cccc(N(Cc2ccc(/C=C/c3ccccc3F)cc2)C(=O)C(C)C)c1 [Compound 193] | 70 nM | 1.17 | excellent activity | –

Structure (SMILES) | EC50 (Tables 1-15) | RE (Tables 1-15) | FXR activation (in words) | EC50
COC(=O)/C=C/c1cccc(N(Cc2ccc(/C=C/c3ccccc3F)cc2)C(=O)NC(C)C)c1 [Compound 194] | 431 nM | 0.89 | – | –
COC(=O)/C=C/c1cccc(N(Cc2ccc(/C=C/c3c(C)cc(C)cc3C)cc2)C(=O)C(C)C)c1 [Compound 196] | 149 nM | 0.30 | – | –
COC(=O)/C=C/c1cccc(N(Cc2ccc(/C=C/c3c(C)cc(C)cc3C)cc2)C(=O)NC(C)C)c1 [Compound 197] | 431 nM | 0.14 | – | –
COC(=O)/C=C/c1cccc(N(Cc2ccc(/C=C/c3ccccc3)cc2)C(=O)C(C)C)c1 [Compound 198] | 65 nM | 1.33 | excellent activity | –
COC(=O)/C=C/c1cccc(N(Cc2ccc(/C=C/c3ccccc3)cc2)C(=O)NC(C)C)c1 [Compound 200] | 119 nM | 1.38 | – | –
COC(=O)C=Cc1cccc(N(Cc2ccc(C=Cc3cccc(F)c3)cc2)C(=O)C2CCCCC2)c1 [Compound 201] | 86 nM | 1.38 | excellent activity; also recorded: among the most active | –
COC(=O)/C=C/c1cccc(N(Cc2ccc(/C=C/c3cccc(F)c3)cc2)C(=O)C(C)C)c1 [Compound 202] | 71 nM | 1.33 | excellent activity | –
COC(=O)/C=C/c1cccc(N(Cc2ccc(/C=C/c3cccc(F)c3)cc2)C(=O)NC(C)C)c1 [Compound 203] | 467 nM | 0.61 | – | –
COC(=O)C=Cc1cccc(N(Cc2ccc(C=Cc3ccc(F)cc3)cc2)C(=O)C2CCCCC2)c1 [Compound 204] | 185 nM | 0.53 | excellent activity; also recorded: among the most active | –
COC(=O)/C=C/c1cccc(N(Cc2ccc(/C=C/c3ccc(F)cc3)cc2)C(=O)C(C)C)c1 [Compound 205] | – | 1.19 | excellent activity | –
COC(=O)/C=C/c1cccc(N(Cc2ccc(/C=C/c3ccc(F)cc3)cc2)C(=O)NC(C)C)c1 [Compound 206] | 348 nM | 0.91 | – | –
COC(=O)C=Cc1cccc(N(Cc2ccc(C=Cc3ccccn3)cc2)C(=O)C2CCCCC2)c1 [Compound 207] | – | 0.61 | – | 309 nM
COC(=O)C=Cc1cccc(N(Cc2ccc(C=Cc3ccccn3)cc2)C(=O)C(C)C)c1 [Compound 208] | 310 nM | 0.62 | – | –
COC(=O)C=Cc1cccc(N(Cc2ccc(C=Cc3ccccn3)cc2)C(=O)NC(C)C)c1 [Compound 209] | 575 nM | 0.68 | – | –
COC(=O)C=Cc1cccc(N(Cc2ccc(C=Cc3scnc3C)cc2)C(=O)C(C)C)c1 [Compound 211] | 228 nM | 0.32 | – | –
COC(=O)C=Cc1cccc(N(Cc2ccc(C=Cc3scnc3C)cc2)C(=O)NC(C)C)c1 [Compound 212] | 356 nM | 0.42 | – | –
COC(=O)/C=C/c1cccc(N(Cc2ccc(-c3ccc(F)c(F)c3)cc2)C(=O)C2CCCCC2)c1 [Compound 213] | 72 nM | 1.70 | excellent activity | –

Other lines, results leading:

EC50 (Tables 1-15) | RE (Tables 1-15) | FXR activation (in words) | EC50 | Structure (SMILES)
> 1000 nM | 0.84 | – | – | CC(C)(C)OC(=O)/C=C/c1cccc(N(Cc2ccc(CCC(=O)OC(C)(C)C)cc2)C(=O)C2CCCCC2)c1 [Compound 160]
> 1000 nM | 0.12 | – | – | COC(=O)C=Cc1cccc(N(Cc2ccc(C=CC(=O)OC(C)(C)C)cc2O)C(=O)C2CCCCC2)c1 [Compound 161]
> 1000 nM | 0.14 | – | – | COC(=O)C=Cc1cccc(N(Cc2ccc(C=CC(=O)OC(C)(C)C)cc2OC)C(=O)C2CCCCC2)c1 [Compound 162]
> 1000 nM | 0.38 | – | – | COC(=O)C=Cc1cccc(N(Cc2ccc(C=CC(=O)OC(C)(C)C)cc2OCc2ccccc2)C(=O)C2CCCCC2)c1 [Compound 163]
> 1000 nM | 0.16 | – | – | COC(=O)C=Cc1cccc(N(Cc2ccc(C=CC(=O)OC(C)(C)C)cc2OC(C)=O)C(=O)C2CCCCC2)c1 [Compound 164]
> 1000 nM | 0.16 | – | – | COC(=O)C=Cc1cccc(N(Cc2ccc(C=CC(=O)OC(C)(C)C)cc2OC(=O)c2ccccc2)C(=O)C2CCCCC2)c1 [Compound 165]
> 1000 nM | 0.16 | – | – | COC(=O)C=Cc1cccc(N(Cc2ccc(C=CC(=O)OC(C)(C)C)cc2OS(C)(=O)=O)C(=O)C2CCCCC2)c1 [Compound 166]
> 1000 nM | 0.16 | – | – | CCOC(=O)COc1cc(C=CC(=O)OC(C)(C)C)ccc1CN(C(=O)C1CCCCC1)c1cccc(C=CC(=O)OC)c1 [Compound 167]
165 nM | 1.41 | excellent activity | – | COC(=O)C=Cc1cccc(N(Cc2ccc(C=Cc3cccc(Cl)c3)cc2)C(=O)C2CCCCC2)c1 [Compound 180]
518 nM | 0.24 | among the least active | – | COC(=O)C=Cc1cccc(N(Cc2ccc(C=Cc3c(C)cc(C)cc3C)cc2)C(=O)C2CCCCC2)c1 [Compound 195]
– | 0.53 | – | 227 nM | COC(=O)C=Cc1cccc(N(Cc2ccc(C=Cc3scnc3C)cc2)C(=O)C2CCCCC2)c1 [Compound 210]
